Measurements reported in US20260183277A1, “ANTIVIRAL PHARMACEUTICAL COMPOSITION COMPRISING ERRy INHIBITOR AS ACTIVE INGREDIENT” (priority 2024, published 2026).
Like-named read-outs stand apart in the source and are kept apart here.

Experiments:
[1] = system: SARS-CoV-2-infected Vero E6 cells; assay: Eicosanoid and cytokine ELISA in SARS-CoV-2-infected Vero E6 cells; type: cell-based, monkey
[2] = Lung distribution after administration to animals; details: in vivo experiments
Text: […]. […] […]

[3] = system: influenza A virus (IAV) PR8 strain; type: cell-based
[4] = system: SREBP1c, SREBP1a, FASN, DGAT1, SCD1; type: cell-based
SARS-CoV-2 KCDC03 strain = assay: SARS-CoV-2 KCDC03 challenge of Syrian hamsters; type: in vivo; details: for reduction of gross lung lesions, individual therapy: strain not stated
[5] = system: intracellular fatty acid oxidation (FAO); type: cell-based
[6] = system: SARS-CoV-2-infected cells; assay: Double-membrane vesicle / dsRNA formation by TEM and confocal microscopy; type: cell-based
free fatty acids (FFA) = type: cell-based
PEDV QIAP1401 strain = type: cell-based, porcine epidemic diarrhea coronavirus; details: maximum dose of 20 μM
[7] = mice
[8] = system: intracellular triacylglycerol (TAG); type: cell-based; details: virus-infected cells; 20 μM
SARS-CoV-2 S protein = type: cell-based
ERRγ = molecular target: T1, ERRγ (Homo sapiens, UniProt P62508); details: compared with lead compound GSK5182; cited from earlier work
T1 sequence (P62508 1-458): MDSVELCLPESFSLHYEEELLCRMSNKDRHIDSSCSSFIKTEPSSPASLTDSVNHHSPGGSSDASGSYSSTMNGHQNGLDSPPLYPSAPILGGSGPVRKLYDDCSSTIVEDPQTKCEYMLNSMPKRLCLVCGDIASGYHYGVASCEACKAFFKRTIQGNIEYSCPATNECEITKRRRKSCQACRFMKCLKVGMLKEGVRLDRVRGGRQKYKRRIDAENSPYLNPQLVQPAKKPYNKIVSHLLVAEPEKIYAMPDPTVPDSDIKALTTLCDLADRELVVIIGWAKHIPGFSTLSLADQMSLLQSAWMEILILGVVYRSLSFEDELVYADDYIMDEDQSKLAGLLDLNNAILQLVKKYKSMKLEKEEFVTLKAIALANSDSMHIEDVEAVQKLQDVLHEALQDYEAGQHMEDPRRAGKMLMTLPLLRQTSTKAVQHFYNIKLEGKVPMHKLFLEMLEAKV

IAV-infected A549 cells = type: cell-based, human
PSaV Cowden strain = assay: microbe, parasite or virus in culture; type: cell-based, porcine sapovirus; details: Sapporo virus, MOI=0.1 FFU, viral yield in cell supernatant, read-out: half-maximal inhibitory concentration (IC50)
[9] = system: human SREBP1c gene promoter; type: cell-based; details: cells infected with each individual virus; 20 μM
IAV HA protein = type: cell-based, influenza A virus
BCoV KWD strain = type: cell-based, bovine coronavirus; details: maximum dose of 20 μM
[10] = system: c-Jun occupancy on the AP1 regulatory element site of the ERRγ promoter; type: cell-based
ROS = type: cell-based
ERRγ promoter = type: cell-based

CC(C)N1CCN(c2ccc(/C(=C(/CCCO)c3ccccc3)c3ccc(O)cc3)cc2)CC1 [DN200434]
IFN-α and IFN-β levels ([1]; SARS-CoV-2-infected Vero cells): remained unchanged
TNF-α, IL-6, and MCP-1 levels ([1]; SARS-CoV-2-infected Vero cells): significantly reduced
levels of PGE2 and LTB4 ([1]; SARS-CoV-2-infected cells): significantly reduced
detection in the lungs via the bloodstream [2]: detected in sufficient quantities in the lungs
viral genome replication, progeny production, and protein synthesis of IAV [3]: dose-dependent suppression
SREBP1c expression activated by individual virus infections [4]: reduced
basal level of SREBP1a mRNA ([4]; 20 μM): not affected
lipogenic gene activation (FASN, DGAT1, SCD1 mRNA) ([4]; 20 μM): effectively attenuated
reduction in gross lung lesions (SARS-CoV-2 KCDC03 strain; 40 mg kg^−1 d^−1 i.p., twice a day for four and a half days, vs virus-challenged, vehicle-treated control): 92%
reduction of gross lung lesions, individual therapy (SARS-CoV-2 KCDC03 strain; DN200434 40 mg kg^−1 d^−1 alone (combination study)): 50%
IFN-α and IFN-β levels in BALF (SARS-CoV-2 KCDC03 strain; hamsters, i.p., vs vehicle-treated controls): no effect
energy production through 3-oxidation in the mitochondria from the FFA substrate [5]: inhibited
SARS-CoV-2-induced perinuclear DMV clusters containing viral double-stranded RNA ([6]; TEM and confocal microscopy): significant reduction
number of progeny viral particles ([6]; TEM, vs vehicle-treated virus-infected cells): notable reduction
synthesis of representative fatty acids induced by infection (free fatty acids (FFA)): significantly interrupted
level of selected FFA (free fatty acids (FFA); 20 μM): either restored the level of selected FFA to that of mock control cells or decreased it below mock control levels
reduction in viral genome copy numbers (PEDV QIAP1401 strain): more than 2.0 log 10 steps
reduction in viral titers (PEDV QIAP1401 strain): more than 2.0 log 10 steps
gross or histopathological changes in vital organs (liver, lung, kidney, heart, spleen) [7]: did not result in gross or histopathological changes
signs of toxicity ([7]; i.p. 20 mg kg^−1 d^−1, 14 days): did not induce any signs of toxicity
lipid accumulation (intracellular TAG) [8]: effectively attenuated
palmitoylation of SARS-CoV-2 S protein (SARS-CoV-2 S protein): significantly inhibited
functional IC50 relative to GSK5182 (ERRγ): 12 fold
levels of PGE2 and LTB4 (IAV-infected A549 cells): significantly reduced
proinflammatory cytokines IFN-α, IFN-β, TNF-α, IL-6, and MCP-1 (IAV-infected A549 cells): significant suppression
IC50 (PSaV Cowden strain): 6.24 ± 1.07 µM
activity of the SREBP1c gene promoter [9]: markedly suppressed
palmitoylation of IAV HA proteins (IAV HA protein): significantly inhibited
reduction in viral genome copy numbers (BCoV KWD strain): more than 2.0 log 10 steps
reduction in viral titers (BCoV KWD strain): more than 2.0 log 10 steps
signs of toxicity (Syrian hamsters, i.p. 40 mg kg^−1 d^−1, 14 days): did not induce any signs of toxicity
gross or histopathological changes in vital organs (liver, lung, kidney, heart, spleen) (hamsters): did not result in gross or histopathological changes

CC(=O)N[C@@H](CS)C(=O)O [NAC, N-acetylcysteine]
virus-increased occupancy of c-Jun on the AP1 regulatory element site of the ERRγ promoter [10]: markedly blocked
virus-induced ROS generation (ROS): significantly suppressed
virus-induced activation of ERRγ promoter and ERRγ expression (ERRγ promoter): attenuated

CCC(CC)COC(=O)[C@H](C)N[P@](=O)(OC[C@H]1O[C@@](C#N)(c2ccc3c(N)ncnn23)[C@H](O)[C@@H]1O)Oc1ccccc1 [remdesivir, reference compound]
reduction of gross lung lesions, individual therapy (SARS-CoV-2 KCDC03 strain; remdesivir 2.5 mg kg^−1 d^−1 alone): 20%
